Test results from patent publication US12247004B2, “2-amino-N-(amino-oxo-aryl-lambda6-sulfanylidene)acetamide compounds and their therapeutic use” (Oxford Drug Design Limited, priority 2019, dated 2025).
Counter-ions that a name gives are not always drawn. Like-named read-outs stand apart in the source and are kept apart here.

Key:
[1] = biological target: Isoleucyl-tRNA synthetase (IleRS) (Escherichia coli (strain K12), UniProt P00956); assay: Isoleucyl-tRNA synthetase enzyme inhibition (AMP-Glo; single point % inhibition at 100 μM and IC50); assay type: biochemical; conditions: E. coli IleRS; read-out: Enzyme Inhibition - IC50, E. coli IleRS
Text: Study 1—Enzyme Inhibition
The aminoacylation reaction catalyzed by aminoacyl-tRNA synthetases (aaRS) takes place in two steps. In the first step, aaRS activates its cognate amino acid with ATP; and in the second step the activated amino acid is loaded to its corresponding tRNA. This reaction can be summarized as follows: aaRS+aa+ATP=aaRS-aa-AMP+PPi aaRS-aa-AMP+tRNA=aa-tRNA+AMP+aaRS […]
wherein: aaRS, aminoacyl-tRNA synthetase; aa, amino acid; aaRS-aa-AMP, enzyme-bound to aminoacyl-adenylate; AMP, adenosine monophosphate; aa-tRNA, aminoacyl-tRNA, PPi, inorganic pyrophosphate.
Isoleucyl-tRNA Synthetase a. Single Point Percentage Inhibition
The activity of the pathogenic aaRSs was monitored by measuring AMP production using the commercial kit AMP-Glo (Promega, Madison, USA).
Ligand stock solutions were prepared in 100% DMSO at 10 mM concentration. An assay buffer consisting of 100 mM Tris HCl pH 7.6, 40 mM MgCl, 20 mM KCl and 150 mM NaCl was prepared in dH2O. An enzyme solution containing 51.77 μM IleRS was prepared in assay buffer to provide 30 nM final assay concentration and 75 nM reservoir concentration for a 1:2.5 dilution in the assay. A substrate solution was also prepared in assay buffer with 50 mM L-isoleucine, 10 mM ATP and 100 mg/mL tRNA. A final assay concentration of 500 μM L-isoleucine, 5 μM ATP and 1 mg/mL tRNA and reservoir concentration of 833.33 μM L-isoleucine, 8.33 μM ATP and 1.67 mg/mL tRNA was used for a 1:1.66 dilution in assay.
Enzyme percentage inhibition values were recorded in triplicate at a single point concentration of 100 μM.
Using the same enzymatic assay in a 384-well plate format, ten point concentration response curves were generated for each compound using a top concentration of 100 μM. The known inhibitor, IleAMS was used as a positive control for the IleRS assay. 100% DMSO was used as a negative control. The IC50 was calculated based on non-linear regression analysis.

[2] = Human cell viability / cytotoxicity (CellTiter-Glo, 24 hours); assay type: cell-based; conditions: human, HepG2 cells (ATCC HB-8065); HepG2 ATCC HB-8065, 24 hours; read-out: Cytotoxicity in HepG2 ATCC HB-8065 Cell Line, IC50
Method: Study 3—Human Cell Viability
Compounds were assessed for potential non-specific cytotoxic effects against a human hepatic cell line (HepG2 ATCC HB-8065). 96-well plates were seeded with HepG2 cells in concentration of 15,000 cells per well in 100 μL of MEM growth media completed with 1% NEAA and 1% sodium pyruvate. Border wells were filled with 100 μL of sterile PBS. Two days upon cells incubation, the compounds were added. Compound dilutions were prepared in 96-well V-bottom plate in pure DMSO. Growth media from 5 plates were aspirated and replaced with 98.7 μL of fresh growth media. 1.28 μL of compounds prepared in V-bottom plates were transferred with multichannel pipette into test plates (78.1× dilution). Final DMSO concentration was 1.28% per well. In control wells, 1.28 μL of DMSO was added in 98.7 μL of media. Compounds were tested in duplicates. Cells were incubated with compounds for 24 hours when cell viability was assessed by measuring ATP levels. ATP levels were measured by adding 50 μL of CellTiter-Glo reagent to each well and after 5 minutes of incubation luminescence was measured with SpectraMax i3. The potential effect of tested compounds on cell viability was determined by comparing the signal obtained in presence of different concentrations of the compounds with those obtained in the presence of DMSO only. The potential effects were then calculated and presented as IC50 values (μg/mL).

[3] = biological target: Leucyl-tRNA synthetase (LeuRS) (Escherichia coli (strain K12), UniProt P07813); assay: Leucyl-tRNA synthetase enzyme inhibition (AMP-Glo; single point % inhibition at 100 μM and IC50); assay type: biochemical
[4] = test system: bacteria (ATCC reference strains); assay: Antibacterial activity, MIC by broth micro-dilution (CLSI)
[5] = Acinetobacter baumannii, read-out: Antibacterial Activity (MIC), E = A. baumannii B1931
[6] = Enterobacter cloacae, read-out: Antibacterial Activity (MIC), B = Enterobacter cloacae B1966
[7] = Escherichia coli, ATCC25922, read-out: Antibacterial Activity (MIC), A = E. coli ATCC 25922
[8] = Haemophilus influenzae, ATCC49247, read-out: Antibacterial Activity (MIC), F = H. influenzae ATCC 49247
[9] = Klebsiella pneumoniae, ATCC700603, read-out: Antibacterial Activity (MIC), C = K. pneumoniae ATCC 700603
[10] = Pseudomonas aeruginosa, ATCC27853, read-out: Antibacterial Activity (MIC), D = P. aeruginosa ATCC 27853
[11] = Escherichia coli, BAA2469, read-out: Antibacterial Activity (MIC), G = E. coli BAA-2469

Leucyl-tRNA synthetase (LeuRS), sequence (P07813 whole entry, looked up): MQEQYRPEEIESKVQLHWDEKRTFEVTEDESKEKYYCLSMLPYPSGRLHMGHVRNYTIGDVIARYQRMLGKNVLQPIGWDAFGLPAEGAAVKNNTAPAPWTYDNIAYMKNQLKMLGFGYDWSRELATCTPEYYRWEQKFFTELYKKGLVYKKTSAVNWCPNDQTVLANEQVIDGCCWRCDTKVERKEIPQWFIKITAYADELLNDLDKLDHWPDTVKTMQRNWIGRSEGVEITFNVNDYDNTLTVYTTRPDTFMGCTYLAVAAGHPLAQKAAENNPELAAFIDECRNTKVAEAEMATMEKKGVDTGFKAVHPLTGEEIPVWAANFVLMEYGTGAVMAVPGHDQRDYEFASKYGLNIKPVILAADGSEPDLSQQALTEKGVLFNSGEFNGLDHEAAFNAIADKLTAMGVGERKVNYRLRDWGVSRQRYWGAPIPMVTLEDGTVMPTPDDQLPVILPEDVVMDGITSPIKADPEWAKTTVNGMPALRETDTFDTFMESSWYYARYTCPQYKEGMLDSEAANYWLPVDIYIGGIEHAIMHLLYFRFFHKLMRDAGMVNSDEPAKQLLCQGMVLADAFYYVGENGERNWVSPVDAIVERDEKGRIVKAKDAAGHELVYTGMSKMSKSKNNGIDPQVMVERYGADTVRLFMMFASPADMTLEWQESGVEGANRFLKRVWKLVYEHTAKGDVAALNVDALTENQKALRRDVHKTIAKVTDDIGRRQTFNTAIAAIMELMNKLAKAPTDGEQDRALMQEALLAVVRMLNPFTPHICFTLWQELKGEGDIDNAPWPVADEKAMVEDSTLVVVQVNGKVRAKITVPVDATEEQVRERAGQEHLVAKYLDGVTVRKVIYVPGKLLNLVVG
Isoleucyl-tRNA synthetase (IleRS), sequence (P00956 whole entry, looked up): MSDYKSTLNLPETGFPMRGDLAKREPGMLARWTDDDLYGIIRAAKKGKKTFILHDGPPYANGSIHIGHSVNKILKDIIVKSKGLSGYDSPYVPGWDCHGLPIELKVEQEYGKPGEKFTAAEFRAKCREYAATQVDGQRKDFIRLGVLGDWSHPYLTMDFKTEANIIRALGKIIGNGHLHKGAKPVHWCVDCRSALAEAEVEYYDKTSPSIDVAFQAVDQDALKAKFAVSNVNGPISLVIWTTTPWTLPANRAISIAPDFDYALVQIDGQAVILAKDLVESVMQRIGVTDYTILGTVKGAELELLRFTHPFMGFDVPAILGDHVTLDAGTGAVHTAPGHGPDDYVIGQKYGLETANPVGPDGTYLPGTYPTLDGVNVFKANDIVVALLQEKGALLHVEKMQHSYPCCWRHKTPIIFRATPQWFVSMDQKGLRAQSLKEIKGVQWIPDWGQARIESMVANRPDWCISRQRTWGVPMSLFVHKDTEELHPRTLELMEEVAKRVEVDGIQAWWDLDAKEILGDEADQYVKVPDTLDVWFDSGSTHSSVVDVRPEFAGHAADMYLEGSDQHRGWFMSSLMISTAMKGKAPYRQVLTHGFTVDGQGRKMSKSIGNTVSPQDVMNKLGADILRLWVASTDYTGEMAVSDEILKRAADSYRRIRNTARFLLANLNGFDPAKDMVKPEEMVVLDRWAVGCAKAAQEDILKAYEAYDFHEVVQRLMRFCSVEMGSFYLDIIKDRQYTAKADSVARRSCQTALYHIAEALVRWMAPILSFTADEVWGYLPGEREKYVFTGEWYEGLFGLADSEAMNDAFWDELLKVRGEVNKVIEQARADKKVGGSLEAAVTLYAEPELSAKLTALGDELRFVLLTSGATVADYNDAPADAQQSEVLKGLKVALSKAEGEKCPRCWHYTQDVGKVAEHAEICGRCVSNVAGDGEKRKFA

SMILES: CC[C@H](C)[C@H](N)C(=O)N=[S@@](N)(=O)c1ccc(Cl)c(Cl)c1 [ANASIA-036-2]
- IC50 [1]: 30.6 µM

SMILES: CC[C@H](C)[C@H](N)C(=O)N=S(N)(=O)c1csc2ccsc12 (some centres unmarked) [ANASIA-084]
- IC50 [1]: 2.82 µM

SMILES: CC[C@H](C)[C@H](N)C(=O)N=[S@](N)(=O)c1ccc2c(c1)OCO2 [ANASIA-115-1]
- IC50 [1]: 4.7 µM

SMILES: CC[C@H](C)[C@H](N)C(=O)N=[S@@](N)(=O)c1cccc(OC(F)F)c1 [ANASIA-069-2]
- IC50 [1]: 13.7 µM

SMILES: CC[C@H](C)[C@H](N)C(=O)N=[S@](N)(=O)c1cccc(C(F)(F)F)c1 [ANASIA-072-1]
- IC50 [1]: 53.1 µM

SMILES: CC[C@H](C)[C@H](N)C(=O)N=[S@](N)(=O)c1cccc(C(C)(C)C)c1 [ANASIA-056-1]
- IC50 [1]: 84 µM

SMILES: CC[C@H](C)[C@H](N)C(=O)N=[S@](N)(=O)c1ccc(Cl)s1 [ANASIA-029-1]
- IC50 [1]: 67.4 µM

SMILES: CC[C@H](C)[C@H](N)C(=O)N=[S@](N)(=O)c1ccc2cccnc2c1 [ANASIA-054-1]
- IC50 [1]: 83.7 µM

SMILES: CC[C@H](C)[C@H](N)C(=O)N=[S@](N)(=O)c1cccs1 (single isomer, unassigned) [ANASIA-028-1]
- IC50 [1]: 46.5 µM

SMILES: CC[C@H](C)[C@H](N)C(=O)N=[S@](N)(=O)c1scc(Br)c1Br [ANASIA-116-1]
- IC50 [1]: 3.83 µM

SMILES: CC[C@H](C)[C@H](N)C(=O)N=S(N)(=O)c1nc(Cl)cs1 (some centres unmarked) [ANASIA-058]
- IC50 [1]: 58.6 µM

SMILES: CC[C@H](C)[C@H](N)C(=O)N=[S@](N)(=O)c1cscc1C [ANASIA-079-1]
- IC50 [1]: 19.8 µM

SMILES: CC[C@H](C)[C@H](N)C(=O)N=[S@@](N)(=O)c1csc(Cl)c1 [ANASIA-080-2]
- IC50 [1]: 41.3 µM

SMILES: CC[C@H](C)[C@H](N)C(=O)N=[S@](N)(=O)c1cccc(OC(F)(F)F)c1 [ANASIA-077-1]
- IC50 [1]: 40.8 µM

SMILES: CC[C@H](C)[C@H](N)C(=O)N=[S@@](N)(=O)c1scc(Br)c1Br [ANASIA-116-2]
- IC50 [1]: 0.95 µM

SMILES: CC[C@H](C)[C@H](N)C(=O)N=[S@](N)(=O)c1csc(Cl)c1 [ANASIA-080-1]
- IC50 [1]: 1.14 µM

SMILES: CC[C@H](C)[C@H](N)C(=O)N=[S@](N)(=O)c1cccc(Cl)c1 [ANASIA-033-1]
- IC50 [1]: 67.6 µM

SMILES: Cc1csc(S(N)(=O)=NC(=O)[C@@H](N)CC(C)C)n1 (stereo partly drawn) [ANASIA-004, (2S)-2-amino-N-(amino(4-methylthiazol-2-yl)(oxo)-λ6-sulfanylidene)-4-methyl pentanamide hydrochloride]
- IC50 at 24 h [2]: > 64 µg/mL
- IC50 ([3]; E. coli LeuRS, read-out: Enzyme Inhibition - IC50, E. coli LeuRS): 0.0916 µM
- MIC [4, 5]: 64 µg/mL
- MIC [4, 6]: > 64 µg/mL
- MIC [4, 7]: 16 µg/mL
- MIC [4, 8]: 8 µg/mL
- MIC [4, 9]: > 64 µg/mL
- MIC [4, 10]: 64 µg/mL

SMILES: CC(C)C[C@H](N)C(=O)N=[S@](N)(=O)c1cccc(OC(F)F)c1.Cl [ANASIA-088-1]
- IC50 at 24 h [2]: > 64 µg/mL
- IC50 [3]: 0.0753 µM
- MIC [4, 5]: > 64 µg/mL
- MIC [4, 6]: 64 µg/mL
- MIC [4, 7]: 4 µg/mL
- MIC [4, 11]: 32 µg/mL
- MIC [4, 8]: 4 µg/mL
- MIC [4, 9]: > 256 µg/mL
- MIC [4, 10]: > 64 µg/mL

SMILES: CC(C)C[C@H](N)C(=O)N=[S@](N)(=O)c1cccc(Cl)c1.Cl [ANASIA-002-1]
- IC50 at 24 h [2]: > 64 µg/mL
- IC50 [3]: 0.0275 µM
- MIC [4, 5]: 32 µg/mL
- MIC [4, 6]: 8 µg/mL
- MIC [4, 7]: 1 µg/mL
- MIC [4, 11]: 4 µg/mL
- MIC [4, 8]: 2 µg/mL
- MIC [4, 9]: 32 µg/mL
- MIC [4, 10]: > 64 µg/mL

SMILES: CC(C)C[C@H](N)C(=O)N=[S@](N)(=O)c1cccc(Br)c1.Cl [ANASIA-044-1]
- IC50 at 24 h [2]: > 64 µg/mL
- IC50 [3]: 0.071 µM
- MIC [4, 5]: 64 µg/mL
- MIC [4, 6]: 16 µg/mL
- MIC [4, 7]: 2 µg/mL
- MIC [4, 8]: 2 µg/mL
- MIC [4, 9]: 64 µg/mL
- MIC [4, 10]: > 64 µg/mL

SMILES: Cc1ccsc1[S@@](N)(=O)=NC(=O)[C@@H](N)CC(C)C.Cl [ANASIA-015-1]
- IC50 at 24 h [2]: > 64 µg/mL
- IC50 [3]: 0.0565 µM
- MIC [4, 5]: 64 µg/mL
- MIC [4, 6]: 16 µg/mL
- MIC [4, 7]: 2 µg/mL
- MIC [4, 11]: 5.66 µg/mL
- MIC [4, 8]: 8 µg/mL
- MIC [4, 9]: 16 µg/mL
- MIC [4, 10]: 64 µg/mL

SMILES: CC(C)C[C@H](N)C(=O)N=[S@](N)(=O)c1ccsc1.Cl [ANASIA-008-1]
- IC50 at 24 h [2]: > 64 µg/mL
- IC50 [3]: 0.0306 µM
- MIC [4, 5]: 32 µg/mL
- MIC [4, 6]: 8 µg/mL
- MIC [4, 7]: 2 µg/mL
- MIC [4, 8]: 4 µg/mL
- MIC [4, 9]: 8 µg/mL
- MIC [4, 10]: 32 µg/mL
